Data on one compound can be found in PubChem BioAssay AID743132 (The Scripps Research Institute Molecular Screening Center, 2013).

SMILES strings stand for the structures. Active and inactive are the calls of the source.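 Rule for the calls: active = compounds blocking probe labeling of mouse brain LYPLA1 and LYPLA2 with IC50 at most 1000 nM; inactive = IC50 above 1000 nM.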

Holding throughout (assay): mouse brain serine hydrolase inhibitor potency by ABPP – cell lysate, mouse brain membrane proteome, fluorescence gel, selectivity assay for LYPLA1/LYPLA2 inhibitor project, late-stage follow-up (AID 743132)
Experiment [1] addresses Acyl-protein thioesterase 1 (Mus musculus) (UniProt P97823). To be noted: gel-based ABPP FP-Rh fluorescence, LYPLA1/2.
Experiment [2] deals with FAAH. To be noted: gel-based ABPP FP-Rh fluorescence.
Experiment [3] addresses Monoacylglycerol lipase ABHD6 (Mus musculus) (UniProt Q8R2Y0). The following applies: gel-based ABPP FP-Rh fluorescence.

Acyl-protein thioesterase 1 (Mus musculus), sequence (P97823 whole entry, looked up): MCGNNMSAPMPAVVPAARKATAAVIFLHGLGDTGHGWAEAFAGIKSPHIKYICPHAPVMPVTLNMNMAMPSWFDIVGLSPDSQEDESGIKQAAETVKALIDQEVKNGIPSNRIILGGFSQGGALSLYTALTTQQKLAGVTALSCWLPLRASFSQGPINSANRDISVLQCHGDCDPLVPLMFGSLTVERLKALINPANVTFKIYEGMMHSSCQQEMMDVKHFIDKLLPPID
Monoacylglycerol lipase ABHD6 (Mus musculus), sequence (Q8R2Y0 whole entry, looked up): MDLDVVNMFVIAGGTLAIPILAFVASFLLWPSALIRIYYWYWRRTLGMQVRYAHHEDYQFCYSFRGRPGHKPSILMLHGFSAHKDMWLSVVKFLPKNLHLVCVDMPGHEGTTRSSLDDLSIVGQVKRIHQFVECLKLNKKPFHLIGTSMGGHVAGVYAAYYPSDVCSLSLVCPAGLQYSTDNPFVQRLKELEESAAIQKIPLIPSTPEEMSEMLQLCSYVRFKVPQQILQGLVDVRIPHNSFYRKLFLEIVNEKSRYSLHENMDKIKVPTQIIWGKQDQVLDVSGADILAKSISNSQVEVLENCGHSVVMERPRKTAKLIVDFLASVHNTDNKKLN

Consider `O=C(ON1C(=O)C2CN(C(=O)N3CCOCC3)CCN2C1=O)N1CCC(CCc2ccc(Cl)cc2)CC1` (stereo not drawn), for which the IC50 in experiment [1] was 154 nM; in experiment [3] it was 3.15 nM. Also, the IC50 entry in experiment [2] is “inactive”.
